Laboratory results reported in US6555372B1, “Composition for enhancing cellular immunogenicity comprising alpha-glycosylceramides” (Kirin Beer Kabushiki Kaisha, priority 1997, dated 2003).

Legend:
[1] = system: B16, EL-4, Lewis lung carcinoma, Colon 26, L1210 and Meth A mouse tumor cells; test: Effect of α-glycosylceramide on tumorigenicity of tumor cells; type: in vivo; conditions: six mouse tumor cell lines cultured 1 day with 100 ng/ml, implanted i.v. into C57BL/6 or BALB/c mice; FIG. 4
Description: Six kinds of mouse tumor cells, i.e., three kinds of C57BL/6 mouse-derived tumor cells, i.e., murine melanoma B16 cells (Dainippon Pharmaceutical Co., Ltd.), mouse T lymphoma EL-4 cells (Dainippon Pharmaceutical Co., Ltd.) and mouse Lewis lung carcinoma cells (Dainippon Pharmaceutical Co., Ltd.), and three kinds of BALB/c-mouse derived tumor cells, i.e., mouse colon cancer cell Colon 26 (Japanese Foundation for Cancer Research), mouse leukemia L1210 cells (Japanese Foundation for Cancer Research) and mouse fibrosarcoma Meth A cells (Japanese Foundation for Cancer Research) were cultured with or without an addition of a vehicle (0.1% DMSO) or KRN 7000 (100 ng/ml) for one day as described in Pharmacological Tests above. The resulting tumor cells were washed twice with a medium, suspended again in a fresh medium and implanted intravenously into the tail of corresponding mice. […]
The tumor cells implanted intravenously into the tail formed metastasized nodules in various organs, particularly in the liver or lung, and ultimately killed the animals. Accordingly, the effect of the tumor cells on tumorigenicity (a rate of tumor formation, the ability to form tumor burden) was evaluated by observing the survival period.

[2] = system: Mouse T lymphoma EL-4 cells; test: Therapeutic effect of treated tumor cells in EL-4 liver metastasis model mice; type: in vivo
Protocol: Mouse T lymphoma EL-4 cells (4×10^5 cells/mouse) were implanted intravenously into the tail of BDF1 mice (female, 6 weeks of age, Japan SLC, Inc.), 6 animals in one group, to prepare cancer-bearing mice. The days of tumor implantation was set to be day 0. On the same day, a vehicle (0.1% DMSO), KRN 7000 (100 ng/ml) or AGL-583 (100 ng/ml) was added to EL-4 cells which had been inoculated into a fresh medium, in the same manner as in Pharmacological Test 1 above. One day after the start of incubation, cells of EL-4/V, EL-4/KRN and EL-4/583 cultured in the presence of the vehicle, KRN 7000 and AGL-583, respectively, were recovered and washed twice with the medium, after which the recovered cells were immunized intravenously into the tail of the cancer-bearing mice at 1×10^5 cells/mouse. The resulting antitumor effect was compared.
EL-4 implanted mice generally died in about 30 days owing to the tumor formation and growth in several organs, particularly in the liver. Therefore, antitumor effect was evaluated by observing the survival period of cancer-bearing hosts.

[3] = EL-4-bearing BDF1 mice immunized i.v. on day 1 with 1×10^5 EL-4 cells cultured 1 day with 100 ng/ml compound, vs control mice with tumor only, FIG. 2

Compound | tumorigenicity of treated tumor cells [1] | survival period [2, 3] | treated mice survived for a long term ([2]; EL-4-bearing BDF1 mice immunized i.v. with 1×10^5 EL-4 cells cultured 1 day with 100 ng/ml compound, 6 animals per group) | antitumor effect [2, 3]
CCCCCCCCCCCCCCCCCCCCCCCCCC(=O)N[C@@H](CO[C@H]1O[C@H](CO)[C@H](O)[C@H](O)[C@H]1O)[C@H](O)[C@H](O)CCCCCCCCCCCCCC [KRN 7000, (2S,3S,4R)-1-(α-D-galactopyranosyloxy)-2-hexacosanoylamino-3,4-octadecanediol] | diminished or completely abolished | markedly prolonged | 33.3% | 
CCCCCCCCCCCCCCCCCCCCCCCCCC(=O)N[C@@H](CO[C@@H]1O[C@H](CO)[C@H](O)[C@H](O)[C@H]1O)[C@H](O)[C@H](O)CCCCCCCCCCCCCC [AGL-583, reference compound] |  | not prolonged at all |  | no evident antitumor effect was observed
